# Molecular target: T1, Tyrosinase (Agaricus bisporus, UniProt O42713)
# T1 sequence (O42713 whole entry): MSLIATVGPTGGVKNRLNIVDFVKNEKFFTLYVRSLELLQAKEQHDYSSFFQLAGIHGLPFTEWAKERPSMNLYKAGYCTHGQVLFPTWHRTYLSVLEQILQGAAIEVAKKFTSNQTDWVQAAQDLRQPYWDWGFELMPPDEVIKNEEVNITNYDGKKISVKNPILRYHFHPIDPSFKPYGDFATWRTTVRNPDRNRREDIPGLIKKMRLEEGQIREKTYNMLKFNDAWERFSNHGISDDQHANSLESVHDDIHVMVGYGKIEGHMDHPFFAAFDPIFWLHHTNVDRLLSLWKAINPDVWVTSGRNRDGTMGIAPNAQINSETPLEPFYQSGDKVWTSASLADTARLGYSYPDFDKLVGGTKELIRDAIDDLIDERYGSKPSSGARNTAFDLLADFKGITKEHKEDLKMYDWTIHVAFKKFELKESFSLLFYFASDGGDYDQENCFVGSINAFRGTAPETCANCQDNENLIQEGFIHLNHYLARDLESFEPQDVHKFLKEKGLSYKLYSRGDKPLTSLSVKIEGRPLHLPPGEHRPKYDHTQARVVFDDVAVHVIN
# Description: Inhibition of mushroom tyrosinase
row,IC50 [µM],SMILES
1,870,CC1=C([C@@H](O)CC(=O)O)C(C)(C)C[C@@H](O)C1 [CROCUSATIN H]
2,140,CC(/C=C/C=C(\C)C(=O)O[C@@H]1O[C@H](CO[C@@H]2O[C@H](CO)[C@@H](O)[C@H](O)[C@H]2O)[C@@H](O)[C@H](O)[C@H]1O)=C\C=C\C=C(C)\C=C\C=C(/C)C(=O)O[C@@H]1O[C@H](CO[C@@H]2O[C@H](CO)[C@@H](O)[C@H](O)[C@H]2O)[C@@H](O)[C@H](O)[C@H]1O [CROCIN]
3,960,CC(/C=C/C=C(\C)C(=O)O)=C\C=C\C=C(C)\C=C\C=C(/C)C(=O)O[C@@H]1O[C@H](CO[C@@H]2O[C@H](CO)[C@@H](O)[C@H](O)[C@H]2O)[C@@H](O)[C@H](O)[C@H]1O [CROCIN 3]
4,4500,Oc1ccc(O)cc1 [HYDROQUINONE]
